This assay concerns deac2 gene product. The assay can be described thus: Conversion of N-acetylated amino acids by permeabilized E. coli XLI blue cells with pGK81. The format is cell-based, Comamonas acidovorans. Conditions: 25 mM, 3 hours at 30 °C. Here is the method: To investigate the substrate specificity of the deac2 gene product from Comamonas acidovorans, cells of E. coli strain XLI blue permeabilized by toluene/ethanol treatment were used with and without the vector pGK81. The induction of the deac2 gene repressed by the Lac^i repressor present in this strain could be achieved by IPTG treatment. The permeabilized cells were incubated for 3 hours at 30° C. with various N-acetylated amino acids (final concentration 25 mM) and the supernatants were investigated with the aid of an amino acid analyzer. It turned out here that more than 20% of the N-acetylornithine made available was converted. For N-acetyl-phosphinothricin too, an increasing deacetylation to phosphinothricin, analogous to the concentration of N-acetylphosphinothricin employed, could be found (Table 7).
The concentrations of the N-acetylated amino acids employed and the amino acids formed by deacetylation are indicated.

The structures appear in SMILES notation.

With `CC(=O)N[C@@H](CCCN)C(=O)O` [N-acetyl-ornithine, N-acetylornithine], the “share of substrate made available that was converted” value was “more than 20%”.

The values are drawn from patent US6555733B2, “Genes coding for amino acid deacetylases with specificity for N-acetyl-L-phosphinothricin, their isolation and use” (priority 1996, dated 2003).
